Experimental data reported in ChEMBL document CHEMBL4732045, “Amide Bond Bioisosteres: Strategies, Synthesis, and Successes” (J Med Chem, 2020).
pEC50, pIC50, pKi: −log10 of the molar value. Values after ≈ are worked out from the molar mass of the structure shown. Peptide text beside a SMILES is read from it. * marks the point of attachment. Hica(2S) = CC(C)C[C@H](O)C(=O)O; Boc = CC(C)(C)OC(=O)*

Tests used:
[1] = tested on: MDA-MB-231; experiment: Antitumor activity against human MDA-MB-231 cells xenografted in nude mouse assessed as reduction in tumor volume at 70 mg/kg, ip administered for 15 days (reference value: 550 +/- 98.6 mm3); format: functional; details: time 15 day
[2] = tested on: MCF-10A; experiment: Antiproliferative activity against human MCF-10A cells incubated for 24 hrs by MTT assay; format: functional, cell-based
[3] = tested on: MDA-MB-231; experiment: cells; details: Homo sapiens, MDA-MB-231, 24 h
[4] = Antagonist activity at bombesin receptor in Sprague-Dawley rat pancreatic acini assessed as inhibition of bombesin-induced amylase release incubated for 30 mins; format: tissue-based, Pancreas
[5] = molecular target: Delta-type opioid receptor (Homo sapiens, UniProt P41143)
Delta-type opioid receptor (Homo sapiens, UniProt P41143), sequence (P41143 whole entry): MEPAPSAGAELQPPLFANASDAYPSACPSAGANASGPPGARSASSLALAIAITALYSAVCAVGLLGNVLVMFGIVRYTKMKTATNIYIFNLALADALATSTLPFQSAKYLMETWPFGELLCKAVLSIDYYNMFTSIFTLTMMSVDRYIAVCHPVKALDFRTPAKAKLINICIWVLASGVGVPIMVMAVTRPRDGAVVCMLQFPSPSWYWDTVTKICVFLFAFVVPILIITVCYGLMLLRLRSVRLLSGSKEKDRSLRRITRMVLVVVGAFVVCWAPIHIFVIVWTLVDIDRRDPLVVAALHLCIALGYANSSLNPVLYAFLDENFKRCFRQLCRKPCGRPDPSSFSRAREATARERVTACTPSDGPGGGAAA

[6] = molecular target: Mu-type opioid receptor (Homo sapiens, UniProt P35372)
Mu-type opioid receptor, sequence (P35372 whole entry): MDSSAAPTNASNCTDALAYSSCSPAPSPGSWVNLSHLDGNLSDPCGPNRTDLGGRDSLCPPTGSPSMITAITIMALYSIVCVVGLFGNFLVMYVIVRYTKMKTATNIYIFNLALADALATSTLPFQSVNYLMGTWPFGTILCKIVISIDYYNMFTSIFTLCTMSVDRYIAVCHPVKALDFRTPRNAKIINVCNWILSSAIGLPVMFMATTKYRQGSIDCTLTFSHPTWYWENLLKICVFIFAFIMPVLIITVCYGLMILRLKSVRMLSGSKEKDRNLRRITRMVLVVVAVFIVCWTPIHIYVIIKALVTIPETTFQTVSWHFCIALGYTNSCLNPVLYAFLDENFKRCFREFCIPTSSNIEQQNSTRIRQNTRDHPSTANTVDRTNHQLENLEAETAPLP

[7] = molecular target: Kappa-type opioid receptor (Homo sapiens, UniProt P41145)
Kappa-type opioid receptor, sequence (P41145 whole entry): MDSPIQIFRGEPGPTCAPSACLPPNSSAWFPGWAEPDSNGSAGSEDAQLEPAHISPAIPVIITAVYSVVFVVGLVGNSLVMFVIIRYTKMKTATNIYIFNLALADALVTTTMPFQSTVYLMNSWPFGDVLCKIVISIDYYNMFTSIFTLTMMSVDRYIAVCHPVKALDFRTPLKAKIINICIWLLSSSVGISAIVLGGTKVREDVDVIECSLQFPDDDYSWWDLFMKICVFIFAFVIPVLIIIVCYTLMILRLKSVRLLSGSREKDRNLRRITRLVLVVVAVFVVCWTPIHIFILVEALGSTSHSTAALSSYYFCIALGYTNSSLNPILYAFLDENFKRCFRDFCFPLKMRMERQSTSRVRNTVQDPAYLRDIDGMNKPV

[8] = molecular target: T1, Delta-type opioid receptor (Mus musculus, UniProt P32300); experiment: Inhibition of [3H]-Deltorphin 2 binding to mouse delta opioid receptor expressed in rat GH3 cell membranes by Cheng-Prusoff analysis; set-up: species or system Cell membrane
T1 sequence (P32300 whole entry): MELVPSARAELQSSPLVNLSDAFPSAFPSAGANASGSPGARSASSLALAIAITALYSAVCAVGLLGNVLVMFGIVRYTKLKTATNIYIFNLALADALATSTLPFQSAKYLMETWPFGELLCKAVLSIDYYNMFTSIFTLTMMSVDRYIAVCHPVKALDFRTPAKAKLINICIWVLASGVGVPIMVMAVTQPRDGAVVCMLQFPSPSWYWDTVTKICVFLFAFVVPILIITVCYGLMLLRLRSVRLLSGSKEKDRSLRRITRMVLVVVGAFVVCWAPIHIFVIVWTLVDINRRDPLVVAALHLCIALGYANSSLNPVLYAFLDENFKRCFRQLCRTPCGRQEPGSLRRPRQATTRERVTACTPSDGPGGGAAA

[9] = molecular target: T1, Delta-type opioid receptor; experiment: Agonist activity at delta opioid receptor in mouse vas deferens assessed as inhibition of electric-field induced measured after 5 mins; format: tissue-based
[10] = Half life in Sprague-Dawley rat plasma measured after 60 mins by HPLC method; format: ADME, cell-free
[11] = molecular target: Interstitial collagenase (Homo sapiens, UniProt P03956); experiment: Inhibition of PMA-induced human skin fibroblast derived MMP1 by fluorometric assay; format: tissue-based
Interstitial collagenase, sequence (P03956 whole entry): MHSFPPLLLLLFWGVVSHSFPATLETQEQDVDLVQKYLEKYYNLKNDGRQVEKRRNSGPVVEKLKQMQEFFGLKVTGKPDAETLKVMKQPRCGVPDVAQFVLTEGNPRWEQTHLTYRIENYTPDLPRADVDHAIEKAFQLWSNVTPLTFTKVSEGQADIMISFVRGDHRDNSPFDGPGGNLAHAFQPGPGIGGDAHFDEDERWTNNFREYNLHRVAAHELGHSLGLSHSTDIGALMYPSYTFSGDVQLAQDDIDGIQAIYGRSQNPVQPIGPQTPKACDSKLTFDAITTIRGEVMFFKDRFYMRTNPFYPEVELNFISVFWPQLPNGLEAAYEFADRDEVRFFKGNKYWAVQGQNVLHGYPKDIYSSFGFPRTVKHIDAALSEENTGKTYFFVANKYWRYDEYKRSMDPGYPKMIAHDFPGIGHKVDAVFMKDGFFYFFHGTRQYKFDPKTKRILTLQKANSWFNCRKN

[12] = molecular target: 72 kDa type IV collagenase (Homo sapiens, UniProt P08253); experiment: Inhibition of TNF-induced MMP2 isolated from human HT-1080 cell medium by fluorometric assay; format: tissue-based
72 kDa type IV collagenase, sequence (P08253 whole entry): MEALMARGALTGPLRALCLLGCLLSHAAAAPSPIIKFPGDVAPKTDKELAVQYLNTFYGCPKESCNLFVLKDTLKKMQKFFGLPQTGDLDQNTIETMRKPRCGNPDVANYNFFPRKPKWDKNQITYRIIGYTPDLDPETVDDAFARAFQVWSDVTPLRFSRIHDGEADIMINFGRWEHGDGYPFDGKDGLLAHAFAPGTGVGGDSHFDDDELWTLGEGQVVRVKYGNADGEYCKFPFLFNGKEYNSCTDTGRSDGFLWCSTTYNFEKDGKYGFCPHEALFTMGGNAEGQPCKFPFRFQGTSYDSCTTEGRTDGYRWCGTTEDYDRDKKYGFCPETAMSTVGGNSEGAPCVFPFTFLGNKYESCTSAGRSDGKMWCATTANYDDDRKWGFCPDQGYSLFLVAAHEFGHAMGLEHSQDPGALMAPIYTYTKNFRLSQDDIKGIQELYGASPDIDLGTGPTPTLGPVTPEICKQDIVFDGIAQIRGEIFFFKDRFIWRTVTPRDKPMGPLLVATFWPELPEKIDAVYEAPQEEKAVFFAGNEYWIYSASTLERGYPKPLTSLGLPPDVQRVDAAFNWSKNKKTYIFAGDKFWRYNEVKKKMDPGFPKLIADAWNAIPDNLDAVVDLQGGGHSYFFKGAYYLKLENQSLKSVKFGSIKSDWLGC

[13] = molecular target: Stromelysin-1 (Homo sapiens, UniProt P08254); experiment: Inhibition of human MMP3 by fluorometric assay
[14] = molecular target: Matrilysin (Homo sapiens, UniProt P09237); experiment: Inhibition of human MMP7 by fluorometric assay
Matrilysin, sequence (P09237 whole entry): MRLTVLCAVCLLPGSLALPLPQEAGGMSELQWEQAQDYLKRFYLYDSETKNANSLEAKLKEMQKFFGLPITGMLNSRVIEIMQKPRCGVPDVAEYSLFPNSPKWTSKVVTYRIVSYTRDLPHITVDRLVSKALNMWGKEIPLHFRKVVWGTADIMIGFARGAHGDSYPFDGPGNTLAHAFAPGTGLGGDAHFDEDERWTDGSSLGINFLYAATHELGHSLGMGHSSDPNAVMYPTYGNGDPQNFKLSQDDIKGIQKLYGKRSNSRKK

[15] = Half life in rat at 30 mg/kg, po; format: ADME, organism-based; details: in vivo
[16] = Oral bioavailability in rat at 30 mg/kg; format: ADME, organism-based; details: in vivo
[17] = Inhibition of ACAT in cholesterol-fed New Zealand rabbit intestional microsomes using [1-14C]oleoyl-CoA as substrate preincubated for 5 mins followed by substrate addition and measured after 5 mins by liquid scintillation counting method; set-up: species or system Oryctolagus cuniculus, Intestine, Microsome
[18] = tested on: Rattus norvegicus; experiment: Hypocholesterolemic activity in cholestrol fed Sprague-Dawley rat assessed as decrease in total cholesterol at 0.05%, po administered for 1 week; format: functional; set-up: scale not given: the % may be the effect or the level left; details: time 1 weeks
[19] = clinical; details: human
[20] = molecular target: Protein-S-isoprenylcysteine O-methyltransferase (Homo sapiens, UniProt O60725); experiment: Inhibition of human isoprenylcysteine carboxyl methyltransferase expressed in Saccharomyces cerevisiae membranes using AFC as substrate in presence of 14C-SAM incubated for 30 min by scintillation counting method; format: cell membranes, Cell membrane
Protein-S-isoprenylcysteine O-methyltransferase, sequence (O60725 whole entry): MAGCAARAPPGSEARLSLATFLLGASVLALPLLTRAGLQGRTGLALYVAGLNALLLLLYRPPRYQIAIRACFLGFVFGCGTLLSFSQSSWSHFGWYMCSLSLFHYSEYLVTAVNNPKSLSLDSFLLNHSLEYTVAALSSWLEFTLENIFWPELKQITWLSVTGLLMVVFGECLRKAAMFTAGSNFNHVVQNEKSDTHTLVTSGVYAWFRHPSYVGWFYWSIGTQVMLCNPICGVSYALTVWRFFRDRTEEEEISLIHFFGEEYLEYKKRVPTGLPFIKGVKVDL

[21] = molecular target: T1, Delta-type opioid receptor; experiment: Inhibition of [3H]-Deltorphin 2 binding to mouse delta opioid receptor expressed in HEK293 cell membranes incubated for 60 mins by Cheng-Prusoff analysis; set-up: species or system Cell membrane
[22] = Inhibition of [125]BH-CCK8 binding to guinea pig cortex CCKBR by radioligand binding assay; format: tissue-based, Cavia porcellus
[23] = molecular target: Gastrin/cholecystokinin type B receptor (Homo sapiens) (UniProt P32239); experiment: Agonist activity at CCKBR in human NCI-H345 cells assessed as calcium release relative to control; format: functional, cell-based; details: filed as agonist
Gastrin/cholecystokinin type B receptor (Homo sapiens), sequence (P32239 whole entry): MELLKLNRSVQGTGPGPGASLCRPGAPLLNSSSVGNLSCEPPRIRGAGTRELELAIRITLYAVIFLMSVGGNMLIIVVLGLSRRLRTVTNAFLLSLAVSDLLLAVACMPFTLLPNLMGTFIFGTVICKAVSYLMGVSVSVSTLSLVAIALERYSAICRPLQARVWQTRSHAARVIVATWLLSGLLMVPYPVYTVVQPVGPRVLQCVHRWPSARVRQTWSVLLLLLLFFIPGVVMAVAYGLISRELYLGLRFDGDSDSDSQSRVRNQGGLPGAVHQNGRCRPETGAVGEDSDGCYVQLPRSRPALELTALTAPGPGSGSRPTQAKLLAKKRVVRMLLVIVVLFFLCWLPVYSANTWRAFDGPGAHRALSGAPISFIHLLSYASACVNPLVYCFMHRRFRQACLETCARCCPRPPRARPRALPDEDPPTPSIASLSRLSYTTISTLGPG

[24] = tested on: MDA-MB-231; experiment: Antitumor activity against human MDA-MB-231 cells xenografted in nude mouse assessed as reduction in tumor volume at 90 mg/kg, ip administered for 15 days (reference value: 550 +/- 98.6 mm3); format: functional; details: time 15 day
[25] = molecular target: Integrin alpha-4/beta-1 (Homo sapiens, UniProt P05556+P13612); experiment: Displacement of 125I-VCAM-Ig from VLA4 in human Jurkat cells incubated for 30 mins by scintillation counting method; format: cell-based
[26] = Plasma clearance in rat; format: ADME
[27] = Oral bioavailability in Sprague-Dawley rat at 2 mg/kg; format: ADME, organism-based; details: in vivo
[28] = molecular target: Cannabinoid receptor 1 (Homo sapiens, UniProt P21554); experiment: Displacement of [3H]-CP55940 from human recombinant cannabinoid CB1 receptor expressed in HEK cells by Cheng-Prusoff analysis; format: cell-based
[29] = molecular target: T2, Transient receptor potential cation channel subfamily V member 1 (Homo sapiens, UniProt Q8NER1); experiment: Antagonist activity at human recombinant TRPV1 expressed in HEK293 cells assessed as effect on intracellular calcium level by FLOU-4 dye based fluorescence spectrometry; format: cell-based
T2 sequence (Q8NER1 whole entry): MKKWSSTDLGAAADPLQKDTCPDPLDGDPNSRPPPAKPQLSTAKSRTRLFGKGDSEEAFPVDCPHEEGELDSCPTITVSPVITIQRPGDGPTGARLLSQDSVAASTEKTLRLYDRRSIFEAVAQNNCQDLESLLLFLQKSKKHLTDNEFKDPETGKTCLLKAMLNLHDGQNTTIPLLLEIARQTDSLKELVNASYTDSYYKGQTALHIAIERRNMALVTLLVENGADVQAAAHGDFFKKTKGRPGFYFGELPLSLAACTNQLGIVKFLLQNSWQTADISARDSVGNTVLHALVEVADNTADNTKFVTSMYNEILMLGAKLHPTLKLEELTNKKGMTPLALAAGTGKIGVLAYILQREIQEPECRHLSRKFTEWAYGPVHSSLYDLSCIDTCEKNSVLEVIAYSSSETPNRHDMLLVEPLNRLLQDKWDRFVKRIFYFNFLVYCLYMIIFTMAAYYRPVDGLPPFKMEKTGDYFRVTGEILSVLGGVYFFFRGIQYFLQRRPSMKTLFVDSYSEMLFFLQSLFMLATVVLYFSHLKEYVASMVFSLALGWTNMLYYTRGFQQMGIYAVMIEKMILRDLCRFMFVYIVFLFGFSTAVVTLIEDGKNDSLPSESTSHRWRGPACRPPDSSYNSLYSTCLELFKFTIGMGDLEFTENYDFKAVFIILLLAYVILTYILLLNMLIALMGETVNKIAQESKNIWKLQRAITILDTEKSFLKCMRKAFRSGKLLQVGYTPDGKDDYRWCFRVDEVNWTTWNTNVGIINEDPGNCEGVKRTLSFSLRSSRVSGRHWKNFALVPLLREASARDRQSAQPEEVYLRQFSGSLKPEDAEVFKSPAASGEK

[30] = molecular target: T2, Transient receptor potential cation channel subfamily V member 1
[31] = molecular target: Cholecystokinin receptor type A (Cavia porcellus, UniProt Q63931); experiment: Inhibition of [125]BH-CCK8 binding to guinea pig pancreas CCKAR by radioligand binding assay; format: tissue-based
Cholecystokinin receptor type A, sequence (Q63931 whole entry): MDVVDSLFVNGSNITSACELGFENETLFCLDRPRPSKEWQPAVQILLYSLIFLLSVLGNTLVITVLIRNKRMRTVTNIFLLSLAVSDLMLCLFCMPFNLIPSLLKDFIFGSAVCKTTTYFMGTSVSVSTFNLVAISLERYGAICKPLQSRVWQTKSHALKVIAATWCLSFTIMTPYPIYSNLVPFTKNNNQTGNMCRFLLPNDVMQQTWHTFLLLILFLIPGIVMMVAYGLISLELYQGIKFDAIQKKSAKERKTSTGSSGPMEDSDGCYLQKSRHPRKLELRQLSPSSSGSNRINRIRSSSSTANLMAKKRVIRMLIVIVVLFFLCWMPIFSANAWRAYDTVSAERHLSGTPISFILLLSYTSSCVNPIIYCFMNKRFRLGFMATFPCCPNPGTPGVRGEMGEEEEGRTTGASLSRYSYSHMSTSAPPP

[32] = molecular target: Gastrin/cholecystokinin type B receptor (Homo sapiens, UniProt P32239); experiment: Agonist activity at CCKBR in human NCI-H345 cells assessed as calcium release; format: functional, cell-based
Gastrin/cholecystokinin type B receptor, sequence (P32239 whole entry): as the sequence (P32239 whole entry) above

[33] = tested on: Human betaherpesvirus 5; experiment: Antiviral activity against HCMV infected in human Hs68 cells by plaque reduction assay; format: functional, cell-based; details: Human betaherpesvirus 5, Hs68
[34] = Half-life in Sprague-Dawley rat plasma at 50 uM measured by LC-MS/MS analysis; format: ADME, cell-free
[35] = Half-life in human plasma at 50 uM measured by LC-MS/MS analysis; format: ADME, cell-free

Question: Which Activity [1] does the source give for `CCCCS(=O)(=O)NCc1ccc2c(c1)OCO2` here?
Answer: The Activity was 133.4 mm3.

Question: What about the pIC50 [2] of the same compound?
Answer: Its pIC50 is 3.70.

Question: And the pIC50 [3]?
Answer: Its pIC50 is 4.06.

Question: With `CC(C)C[C@H](N)/C=C/NC(=O)[C@H](CC(C)C)NC(=O)[C@H](Cc1cnc[nH]1)NC(=O)CNC(=O)[C@@H](NC(=O)[C@H](C)NC(=O)[C@H](Cc1c[nH]c2ccccc12)NC(=O)[C@H](CCC(N)=O)NC(=O)[C@H](N)Cc1ccccc1)C(C)C` as the compound, how does the pIC50 [4] read?
Answer: Its pIC50 is 8.17.

Question: With `CC(C)C[C@H](NC(=O)[C@H](Cc1ccccc1)NC(=O)CNC(=O)CN[C@H]([C@@H](N)Cc1ccc(O)cc1)C(F)(F)F)C(=O)O` as the compound, how does the pEC50 [5] read?
Answer: Its pEC50 is less than 5.00.

Question: What about the pEC50 [6] of the same compound?
Answer: The pEC50 was less than 5.00.

Question: And the pEC50 [7]?
Answer: The pEC50 was less than 5.00.

Question: With `CC(C)C[C@@H](C(=O)O)N(C)C(=O)[C@H](Cc1ccccc1)NC(=O)CNC(=O)CNC(=O)[C@@H](N)Cc1ccc(O)cc1` as the compound, how does the pKi [8] read?
Answer: Its pKi is 7.90.

Question: And the pEC50 [9]?
Answer: The pEC50 was 7.46.

Question: And the half-life [10]?
Answer: The half-life was 0.178 h.

Question: With `C=CC[C@H](C(=O)NO)[C@@H](CC(C)C)C(=O)N[C@@H](Cc1ccc2c(c1)CCC2)C(=O)NC` as the compound, how does the pIC50 [11] read?
Answer: The pIC50 was 8.66.

Question: And the pIC50 [12]?
Answer: The pIC50 was 8.74.

Question: What about the pIC50 [13] of the same compound?
Answer: The pIC50 was 7.92.

Question: What about the pIC50 [14] of the same compound?
Answer: The pIC50 was 7.96.

Question: And the half-life [15]?
Answer: The half-life was 0.35 h.

Question: What about the bioavailability [16] of the same compound?
Answer: The bioavailability was 0%.

Question: With `CCCCCCCCCCCCCCCCCNC(=O)Nc1c(C)cccc1C` as the compound, how does the pIC50 [17] read?
Answer: Its pIC50 is 6.80.

Question: And the Activity [18]?
Answer: The Activity was 55%.

Question: For `Cc1nnc2n1-c1ccc(Cl)cc1C(c1ccccc1)=NC2` [ALPRAZOLAM], which half-life [19] is on record?
Answer: The half-life was 6.3 h.

Question: With `CC(C)=CCC/C(C)=C/CC/C(C)=C/CSC[C@H](NC(=O)c1ccccc1Oc1ccccc1)C(=O)O` as the compound, how does the pIC50 [20] read?
Answer: Its pIC50 is 5.37.

Question: What does the source list for `CCCCCCCCCCCCCCCCC(=O)Nc1c(C)cccc1C`?
Answer: pIC50 [17]: 7.37; Activity [18]: 38%

Question: With `CC(C)C[C@H](NC(=O)[C@@H](/C=C(\F)CNC(=O)CNC(=O)[C@@H](N)Cc1ccc(O)cc1)Cc1ccccc1)C(=O)O` as the compound, how does the pKi [21] read?
Answer: Its pKi is 7.37.

Question: Which results are given for `CSCC[C@H](NC(=O)[C@H](Cc1c[nH]c2ccccc12)NC(=O)OC(C)(C)C)C(=O)N[C@@H](CC(=O)O)C(=O)N[C@@H](Cc1ccccc1)C(N)=O`?
Answer: pIC50 [22]: 7.60; Emax [23]: 99%

Question: With `COc1cc(CNC(=O)CCCC/C=C/C(C)C)ccc1O` [CAPSAICIN] as the compound, how does the Activity [24] read?
Answer: Its Activity is 281.3 mm3.

Question: And the pIC50 [3]?
Answer: The pIC50 was 3.92.

Question: With `CC[C@@]1(C(=O)N[C@@H](Cc2ccc(-c3c(OC)cccc3OC)cc2)C(=O)O)CCN1S(=O)(=O)c1ccccc1` as the compound, how does the pIC50 [25] read?
Answer: The pIC50 was 10.15.

Question: What about the clearance [26] of the same compound?
Answer: Its clearance is 110 mL/min/kg.

Question: And the bioavailability [27]?
Answer: The bioavailability was less than 10%.

Question: With `CCCCCCCc1cn(Cc2cc(OC)c(O)cc2I)nn1` as the compound, how does the pKi [28] read?
Answer: The pKi was 6.36.

Question: What about the pKi [29] of the same compound?
Answer: Its pKi is 9.16.

Question: What about the pEC50 [30] of the same compound?
Answer: Its pEC50 is less than 5.00.

Question: Which results are given for `CC(C)C[C@H](NC(=O)OC(C)(C)C)C(=O)NCC(=O)N[C@@H](Cc1c[nH]c2ccccc12)C(=O)N[C@@H](CC(C)C)C(=O)N[C@@H](CC(=O)O)C(=O)N[C@@H](Cc1ccccc1)C(N)=O` (Boc-LGWLDF-NH2)?
Answer: pIC50 [22]: 7.27; pIC50 [31]: 5.80; pEC50 [32]: 7.40; Emax [23]: 99%

Question: With `CC(C)C[C@H](OC(=O)[C@H](Cc1ccccc1)NC(=O)CNC(=O)CNC(=O)[C@@H](N)Cc1ccc(O)cc1)C(=O)O` (H-YGGF-{Hica(2S)}) as the compound, how does the pKi [8] read?
Answer: Its pKi is 7.92.

Question: What about the pEC50 [9] of the same compound?
Answer: The pEC50 was 6.85.

Question: What about the half-life [10] of the same compound?
Answer: The half-life was 0.055 h.

Question: For `CC(C)Oc1ccccc1CNC(=O)Nc1ccc2cnccc2n1`, which IC50 [33] is on record?
Answer: Its IC50 is 0.03 µg/mL (≈ 0.0892 µM).

Question: Which results are given for `CC(C)C[C@H](NC(=O)[C@H](Cc1ccccc1)NC(=O)CNC(=O)C/C=C(\F)[C@@H](N)Cc1ccc(O)cc1)C(=O)O`?
Answer: half-life at 50 µM [34]: 4 h; half-life at 50 µM [35]: 4 h

Question: With `CC(C)C[C@H](N)CNC(=O)[C@H](CC(C)C)NC(=O)[C@H](Cc1cnc[nH]1)NC(=O)CNC(=O)[C@@H](NC(=O)[C@H](C)NC(=O)[C@H](Cc1c[nH]c2ccccc12)NC(=O)[C@H](CCC(N)=O)NC(=O)[C@H](N)Cc1ccccc1)C(C)C` as the compound, how does the pIC50 [4] read?
Answer: The pIC50 was 7.16.

Question: With `CC(C)C[C@H](NC(=O)[C@H](Cc1ccccc1)NC(=O)CNC(=O)CN[C@@H]([C@@H](N)Cc1ccc(O)cc1)C(F)(F)F)C(=O)O` as the compound, how does the pEC50 [5] read?
Answer: The pEC50 was less than 5.00.

Question: What about the pEC50 [6] of the same compound?
Answer: Its pEC50 is less than 5.00.

Question: What about the pEC50 [7] of the same compound?
Answer: Its pEC50 is less than 5.00.
